Assay results published in patent US20180348208A1, “Systems And Methods For Determining The Risk Of Severe Allergic Reaction To Allergen, And The Immunological Protection Afforded By Vaccines” (FlowMetric Life Sciences, priority 2017, published 2018).

Experiments:
[1] = system: leukocytes and CD3+ lymphocytes; test: Detection of leukocyte and lymphocyte activation markers involved in allergic response by flow cytometry; format: cell-based, Human
Method: Human whole blood was obtained from a normal control individual and from an individual with a severe allergy to Amoxicillin. The blood was diluted 1:5 in RPMI media, then stimulated with either 50 μM Amoxicillin for 20 minutes to 1 hour at 37° C. and 5% CO2. In parallel, blood samples were treated with a buffer as a stimulation control, or with 50 μg/mL of the potent polymorphonuclear leukocyte (PMN) chemotactic factor fMLP (N-Formylmethionyl-leucyl-phenylalanine).
Following the stimulation period, blood samples were stained with fluorescently-labeled antibodies to leukocyte activation markers CD294, CD203a or lymphocyte activation markers CD71 and CD69 with the use of CD3 to identify CD3+ lymphocytes. Each of the samples were then incubated, protected from light, for a minimum of 30 minutes. Following incubation with the labeled antibodies, the samples were washed with BSA Stain Buffer. In parallel, samples were separately incubated with isotype control antibodies.
Following washing, red blood cells were lysed with 1 mL of 1× Pharm Lyse™ by incubation with this reagent for 15 minutes. Samples were centrifuged, and washed again with BSA Stain Buffer.
Samples and controls were then run through a FACS CANTO flow cytometer. The flow cytometer was calibrated, and compensation was performed according to standard requirements and procedures. Cells were suspended at a density of 1,000,000 cells per mL in a tube, and run through the flow cytometer for analysis. One hundred thousand events were collected per analysis.
Live cells were gating based on their low staining with FVS450. Lymphocytes and leukocytes were identified by their forward (FSC) and side (SSC) scatter profiles, and gated accordingly. CD+ lymphocytes were then further analyzed according to activation markers CD69 and CD71.

[2] = system: T cells; test: T cell activation detection by flow cytometry in stimulated human whole blood; format: cell-based
Method: Human whole blood can be obtained and diluted 1:5 in RPMI media and stimulated with 0, 20, 40, 60, 80, and 100 μg/mL (of blood) of phytohemagglutinin (PHA) for about 20 hours at 37° C. and 5% CO2. In parallel, blood samples can be treated with a buffer (no PHA) as a stimulation control. Following the stimulation period, blood samples can be stained with fluorescently-labeled antibodies to T cell markers, including CD4, CD25, CD69, and CD71. Fluorescently-labeled (FITC, APC, PE, PerCP-Cy5, and APC-Cy7) antibodies can be mixed with 100 μIL of PHA-stimulated blood samples or with unstimulated blood control samples in parallel, and each of the samples were can then be incubated, protected from light, for a minimum of 30 minutes. Following incubation with the labeled antibodies, the samples can be washed with BSA Stain Buffer. In parallel, samples can be separately incubated with isotype control antibodies. Following washing, red blood cells can be lysed with 1 mL of 1× Pharm Lyse™ by incubation with this reagent for 15 minutes. Samples can be centrifuged, and washed again with BSA Stain Buffer. All samples can be fixed and permeabilized with eBiosciences Fix and Perm solutions according to the manufacturer's instructions. FoxP3 can be added to the fixed/permeabilized samples, and the samples can be incubated for a minimum of 30 minutes. Samples can be washed with BSA Stain Buffer, and 1 μL of Violet Live/Dead is added to the samples and incubated, protected from light, for a minimum of 15 minutes. Samples and controls can be run through a FACSAria III flow cytometer. The flow cytometer can be calibrated, and compensation can be performed according to standard requirements and procedures. Cells can be suspended at a density of 1,000,000 cells per mL in a tube, and run through the flow cytometer for analysis. One hundred thousand events can be collected per analysis. T cells can be identified by their forward (FSC) and side (SSC) scatter profiles, and gated accordingly. T cells can further be analyzed according to the T cell marker profiles (Fox3, CD4, CD25, cD69, and CD71).

[3] = fMLP-stimulated blood samples, 50 μg/mL
[4] = human whole blood diluted 1:5 in RPMI, PHA stimulation about 20 hours at 37° C.
[5] = increasing amounts of PHA, 0 to 100 micrograms over 20 microgram increments
[6] = blood from allergic donor (highly sensitive to Amoxicillin), 50 μM, 20 minutes to 1 hour
[7] = blood from non-allergic donor, 50 μM, 20 minutes to 1 hour

CSCC[C@H](NC=O)C(=O)N[C@@H](CC(C)C)C(=O)N[C@@H](Cc1ccccc1)C(=O)O [fMLP, N-Formylmethionyl-leucyl-phenylalanine]
CD294 and CD203a expression on leukocytes [1, 3]: substantial increase
expression of CD71 and CD69 on lymphocytes [1, 3]: significant increase

Phytohemagglutinin [PHA]
stimulation of normal whole blood CD71, CD69, FoxP3 and CD25+ cells ([2]; 20-100 μg/mL PHA): stimulated
CD4 expression on the T cells [2, 4]: substantial increase
expression of CD25, CD69, CD71, and FoxP3 on the T cells [2, 4]: significant increase
level of CD69 expression on CD4+ cells ([2]; increasing amounts of PHA, 0 to 100 micrograms): enhancement
level of CD71 expression on CD4+ cells [2, 5]: enhancement
level of FoxP3 expression on CD4+ cells [2, 5]: enhancement

CC1(C)S[C@@H]2[C@H](NC(=O)[C@H](N)c3ccc(O)cc3)C(=O)N2[C@H]1C(=O)O [Amoxicillin]
expression of CD69 and CD71 on CD3+ lymphocytes [1, 6]: increased expression
expression of CD294 and CD203a on leukocytes [1, 6]: increased expression
CD71 or CD69 on lymphocytes [1, 7]: did not show an increase
CD294 and CD203a on leukocytes [1, 7]: did not show an increase
